Experimental data as given in US6685960B1, “Solid lipidic nanospheres suitable to a fast internalization into cells” (priority 1998, dated 2004).

How the values were obtained:
[1] = test system: NIH-H460 cells of lung carcinoma; assay: Inhibition of cell proliferation, NIH-H460 cells counted by Cell Counter; format: cell-based
Experimental: The experimentation has been carried out on NIH-H460 cells of lung carcinoma (D. N. Carney et al., Cancer Res., 45, 2913-2923, 1985) grown in monolayer in the RPMI 1640 nutrient medium (Bio Whittaker, Verviers, Belgium) added with 10% by volume with respect to the total volume of FCS (Fetal Calf Serum), at the temperature of 37° C., in a CO2 atmosphere humidified at 5%.
The cells have been put in 24 wells plates, using as nutrient medium RPMI 1640 added with 10% of FCS, and left to adhere for 24 hours. The insemination medium has been then removed and substituted with the experimental medium consisting of RPMI 1640 with 10% of FCS and increasing concentrations of sodium butyrate, or of cholesteryl butyrate in form of nanospheres prepared as in the above reported example 1. The cells have been kept for 6 days in contact with such experimental medium.
The effect of the sodium butyrate and of cholesteryl butyrate on the cell growth has been estimated counting the cells by a Cell Counter.

[2] = test system: cells of the mastocarcinoma, MCF7; assay: Inhibition of cell proliferation, MCF7 cells counted by Cell Counter; format: cell-based; conditions: Homo sapiens, MCF7, 144 h, read-out: inhibition of the cell growth
Experimental: The above described experiment has been repeated on cells of the mastocarcinoma, identified with the MCF7 abbreviation, using as insemination medium DMEM/F12 (Dulbecco's modified Eagle's medium, Sigma Chemical Co., St. Louis, Mo.) with 2% FCS.
Said cells have been placed in 12 well plates, where they have been left to adhere for 24 hours in the above described nutrition medium.
The nutrient medium has been then removed and substituted with the experimental medium consisting of DMEM/F12 with 10% FCS added with increasing concentrations of sodium butyrate, or of cholesteryl butyrate in form of nanospheres prepared according to the above reported example 2. The cells have been kept for 6 days in contact with such experimental medium.
The antiproliferative effect of the cholesteryl butyrate nanospheres on the cell growth has been estimated counting the cells with a Cell Counter.

SMILES	inhibition at 210 µM ([1]; NIH-H460, 144 h, read-out: inhibition of the cell growth)	inhibition at 200 µM [2]	effect on the cell proliferation ([1]; comparison test, additive of the experimental medium RPMI 1640 with 10% FCS)
CCCC(=O)[O-].[Na+] [sodium butyrate]	50%	40%	
CC(C)CCC[C@@H](C)[C@H]1CC[C@H]2[C@@H]3CC=C4C[C@@H](O)CC[C@]4(C)[C@H]3CC[C@]12C [cholesterol]			does not affect the cell proliferation in any way
